Results on five compounds are retold here after ChEMBL document CHEMBL3763038, “Design and synthesis of a new generation of substituted purine hydroxamate analogs as histone deacetylase inhibitors” (Bioorg Med Chem, 2016).

Each structure is given as a SMILES string.

For the first assay, the target named is T1, Histone deacetylase 8 (Homo sapiens, UniProt Q9BY41).
T1 sequence (Q9BY41 whole entry): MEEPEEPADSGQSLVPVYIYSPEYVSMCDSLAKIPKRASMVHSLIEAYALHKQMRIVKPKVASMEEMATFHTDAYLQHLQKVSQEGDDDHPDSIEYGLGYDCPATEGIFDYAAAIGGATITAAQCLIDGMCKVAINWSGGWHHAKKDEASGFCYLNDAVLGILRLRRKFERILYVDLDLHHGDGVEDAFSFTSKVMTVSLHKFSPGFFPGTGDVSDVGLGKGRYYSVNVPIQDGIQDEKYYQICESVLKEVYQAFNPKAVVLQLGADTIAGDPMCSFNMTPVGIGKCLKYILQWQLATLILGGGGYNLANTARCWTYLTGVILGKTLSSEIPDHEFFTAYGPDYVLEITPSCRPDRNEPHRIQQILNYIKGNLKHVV
The assay can be described thus: Inhibition of C-terminal His-tagged human recombinant HDAC8 expressed in Sf9 cells after 30 mins by microtiter plate reader analysis.
Settings: not given
As to `CC(C)Cn1cnc2c(NCCCCCCC(=O)NO)nc(Cl)nc21`, the IC50 amounted to 2010 nM.
Turning to `CC(C)n1cnc2c(NCCCCCCC(=O)NO)nc(N)nc21`, the half-inhibitory concentration (IC50) turned out to be 3130 nM.
For `O=C(CCCCCNc1nc(Cl)nc2c1ncn2Cc1ccccc1)NO`, the IC50 stood at 1440 nM.

Tested on in the next assay: not listed separately
The assay can be described thus: Antiproliferative activity against human KG1 cells after 48 hrs by MTT assay. The format is functional, cell-based. Particulars: KG-1, 48 h. Background: Tetrazolium assays rely on reduction of a dye to a coloured formazan, in cell work by metabolically active cells.
Regarding `CC(C)Cn1cnc2c(NCCCCCCC(=O)NO)nc(Cl)nc21`, the IC50 amounted to 860 nM.
`CC(C)n1cnc2c(NCCCCCCC(=O)NO)nc(N)nc21` registered an IC50 of 3430 nM.
On to `O=C(CCCCCNc1nc(Cl)nc2c1ncn2Cc1ccccc1)NO`, for which the IC50 stood at 320 nM.

In the next assay the target is Histone deacetylase 2 (Homo sapiens, UniProt Q92769). The assay can be described thus: Inhibition of C-terminal GST-tagged human recombinant HDAC2 expressed in Sf9 cells after 30 mins by microtiter plate reader analysis. The format is cell-based.
Chain of Histone deacetylase 2 (Q92769 whole entry): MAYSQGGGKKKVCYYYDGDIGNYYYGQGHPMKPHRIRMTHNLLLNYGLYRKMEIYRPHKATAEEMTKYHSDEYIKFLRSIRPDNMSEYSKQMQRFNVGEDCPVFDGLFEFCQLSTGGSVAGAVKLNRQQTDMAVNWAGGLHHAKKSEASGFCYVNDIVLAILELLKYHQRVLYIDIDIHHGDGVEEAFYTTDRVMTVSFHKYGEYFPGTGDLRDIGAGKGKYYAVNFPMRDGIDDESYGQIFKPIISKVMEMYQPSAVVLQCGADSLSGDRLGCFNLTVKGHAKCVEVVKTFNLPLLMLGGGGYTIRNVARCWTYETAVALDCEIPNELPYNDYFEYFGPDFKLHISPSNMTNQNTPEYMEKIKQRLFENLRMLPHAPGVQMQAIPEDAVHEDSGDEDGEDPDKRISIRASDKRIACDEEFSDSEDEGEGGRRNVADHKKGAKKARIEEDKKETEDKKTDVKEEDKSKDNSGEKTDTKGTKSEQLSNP
Settings: not given
In the case of `CC(C)Cn1cnc2c(NCCCCCCC(=O)NO)nc(Cl)nc21`, the IC50 is 165 nM.
`O=C(CCCCCNc1nc(Cl)nc2c1ncn2Cc1ccccc1)NO`: the half-maximal inhibitory concentration (IC50) amounted to 56 nM.

The test system of a further assay is MDA-MB-231. The assay can be described thus: Antiproliferative activity against human MDA-MB-231 cells after 48 hrs by MTT assay. Particulars: MDA-MB-231, 48 h. The format is functional, cell-based.
As to `CC(C)Cn1cnc2c(NCCCCCCC(=O)NO)nc(Cl)nc21`, the 50% inhibitory concentration (IC50) was 1650 nM.
`CC(C)n1cnc2c(NCCCCCCC(=O)NO)nc(N)nc21` returned a concentration for half-maximal inhibition (IC50) of 3300 nM.
Compound `O=C(CCCCCNc1nc(Cl)nc2c1ncn2Cc1ccccc1)NO` displayed an IC50 of 1120 nM.

Another assay deals with Histone deacetylase (HDAC1 and HDAC2) (Homo sapiens, UniProt Q13547+Q92769). The assay can be described thus: Inhibition of HDAC1/2 in human HeLa cell nuclear extract using color de Lys as substrate preincubated for 5 mins followed by substrate addition measured after 30 min by microtiter plate reader analysis.
Settings: not given
The format is cell-based.
`CC(C)Cn1cnc2c(NCCCCCCC(=O)NO)nc(Cl)nc21` came in with an IC50 of 27 nM.
`O=C(CCCCCCNc1nc(N2CCOCC2)nc2[nH]cnc12)NO`: the half-inhibitory concentration (IC50) turned out to be 157 nM.
`CCCCn1cnc2c(NCCCCCC(=O)NO)nc(N3CCOCC3)nc21`: the concentration for half-maximal inhibition (IC50) was found to be 130 nM.
Still for that read-out and setting: in the case of `O=C(CCCCCNc1nc(Cl)nc2c1ncn2Cc1ccccc1)NO` it was 26 nM.

Tested on in a further assay: not listed separately
The assay can be described thus: Antiproliferative activity against human PC3 cells after 48 hrs by MTT assay. The format is functional, cell-based. Particulars: PC-3, 48 h.
In turn, `CC(C)Cn1cnc2c(NCCCCCCC(=O)NO)nc(Cl)nc21` showed an IC50 of 1380 nM.
On to `CC(C)n1cnc2c(NCCCCCCC(=O)NO)nc(N)nc21`, for which the IC50 is 6860 nM.
Consider `O=C(CCCCCNc1nc(Cl)nc2c1ncn2Cc1ccccc1)NO`, for which the half-maximal inhibitory concentration (IC50) is 2830 nM.

One may read the IC50 as the point on the concentration scale where inhibition reaches its midpoint.
